This is an account of results in US8076356B2, “Triazolopyridinylsulfanyl derivatives as P38 map kinase inhibitors” (Pfizer Inc., priority 2004, dated 2011).

In general, IC50 refers to the midpoint of a concentration-inhibition curve.

In one assay the test system is TNFα release from human peripheral blood mononuclear cells. As to the kind of experiment: TNFα screen. It is filed as cell-based. To be noted: LPS-stimulated human peripheral blood mononuclear cells, 18 hours incubation, TNFα in supernatant by ELISA; read-out: TNF IC50. On the procedure:
Venous blood is collected from healthy volunteers and the mononuclear cells purified by centrifugation through Histopaque (Ficoll) cushions. TNFα production from these cells is stimulated by addition of lipopolysaccharide. After 18 hours incubation in the presence of LPS, the cell supernatant is removed and the concentration of TNFα in the supernatant determined by ELISA.
In general terms: ELISA stands for enzyme-linked immunosorbent assay.
On to `CC(C)c1ccccc1-c1nnc2ccc(Sc3ccccc3CNC(=O)Nc3cc(C(C)(C)C)nn3-c3ccc(OCCO)cc3)cn12` [Example 139], for which the IC50 was determined as 3.2 nM. Take `Cc1ccc(-n2nc(C(C)(C)C)cc2NC(=O)NCc2ccccc2Sc2ccc3nnc(-c4ccccc4OCc4ccccc4)n3c2)cc1` [Example 116]: the IC50 worked out at 3.2 nM.

As for `CC(C)(C)c1cc(NC(=O)NCc2ccccc2Sc2ccc3nnc(-c4ccccc4O)n3c2)n(-c2cccc(O)c2)n1` [Example 55], the IC50 came to 0.9 nM.

As to `COc1ccccc1-c1nnc2ccc(Sc3ccccc3CNC(=O)Nc3cc(C(C)(C)C)nn3-c3ccc(O)cc3)cn12` [Example 143], the IC50 came out at 1.2 nM. `CC(C)c1nnc2ccc(Sc3ccccc3CNC(=O)Nc3cc(C(C)(C)C)nn3-c3ccccn3)cn12` [Example 180]: the 50% inhibitory concentration (IC50) was 21 nM. Same read-out and setting: the figure for `CSCC(C)(C)c1cc(NC(=O)NCc2ccccc2Sc2ccc3nnc(-c4ccccc4O)n3c2)n(-c2ccccc2)n1` [Example 60] is 1.4 nM; for `CC(C)(C)c1cc(NC(=O)NCc2ccccc2Sc2ccc3nnc(-c4ccccc4O)n3c2)n(-c2cccc(C#N)c2)n1` [Example 51] it is 0.7 nM; for `CSC(C)(C)c1cc(NC(=O)NCc2ccccc2Sc2ccc3nnc(C(C)C)n3c2)n(-c2ccc(OCCO)cc2)n1` [Example 125] it is 80 nM. Still for that read-out and setting: under `CC(C)(C)c1cc(NC(=O)NCc2ccccc2Sc2ccc3nnc(-c4ccc(O)cc4Cl)n3c2)n(-c2ccc(F)c(F)c2)n1` [Example 77] stands 2.7 nM; under `CCc1cc(-n2nc(C(C)(C)C)cc2NC(=O)NCc2ccccc2Sc2ccc3nnc(C(C)C)n3c2)ccc1O` [Example 74], 4 nM; under `CC(C)c1nnc2ccc(Sc3ccccc3CNC(=O)Nc3cc(C(C)(C)C)nn3-c3ccc(Cl)c(O)c3)cn12` [Example 76], 0.8 nM. Same read-out and setting: under `CSC(C)(C)c1cc(NC(=O)NCc2ccccc2Sc2ccc3nnc(-c4cccc(Cl)c4O)n3c2)n(-c2ccc(C)cc2)n1` [Example 153] stands 4.8 nM; under `CC(C)(C)c1cc(NC(=O)NCc2ccccc2Sc2ccc3nnc(-c4cccc(O)c4Cl)n3c2)n(-c2ccc(F)c(F)c2)n1` [Example 128], 3.7 nM. In the case of `Cc1cccc(-n2nc(C(C)(C)C)cc2NC(=O)NCc2ccccc2Sc2ccc3nnc(-c4cc(Cl)ccc4O)n3c2)c1` [Example 58], the half-maximal inhibitory concentration (IC50) worked out at 1.6 nM. On the same count and under the same terms, under `CC(C)(C)c1cc(NC(=O)NCc2ccccc2Sc2ccc3nnc(-c4ccccc4SCCO)n3c2)n(-c2cccc(O)c2)n1` [Example 179] stands 1.5 nM; under `Cc1cc(OCc2ccccc2)cc(-n2nc(C(C)(C)C)cc2NC(=O)NCc2ccccc2Sc2ccc3nnc(C(C)C)n3c2)c1` [Example 124], 4.6 nM. Take `CC(C)c1nnc2ccc(Sc3ccccc3CNC(=O)Nc3cc(C(C)(C)C)nn3-c3cccc4cnccc34)cn12` [Example 181]: the IC50 worked out at 2.7 nM. In the case of `COc1ccccc1-c1nnc2ccc(Sc3ccccc3CNC(=O)Nc3cc(C(C)(C)C)nn3-c3cccc(O)c3)cn12` [Example 145], the IC50 came out at 0.9 nM. For the compound `CSC(C)(C)c1cc(NC(=O)NCc2ccccc2Sc2ccc3nnc(-c4cccc(Cl)c4O)n3c2)n(-c2cccc(C)c2)n1` [Example 152], the IC50 came out at 4.9 nM. Regarding `CCc1ccccc1-c1nnc2ccc(Sc3ccccc3CNC(=O)Nc3cc(C(C)(C)SC)nn3-c3ccc(O)cc3)cn12` [Example 132], the IC50 amounted to 4.5 nM. As to `CSCC(C)(C)c1cc(NC(=O)NCc2ccccc2Sc2ccc3nnc(-c4ccccc4O)n3c2)n(-c2ccc(F)c(F)c2)n1` [Example 64], the IC50 stood at 0.9 nM. Same read-out and setting: under `CSC(C)(C)c1cc(NC(=O)NCc2ccccc2Sc2ccc3nnc(-c4ccc(C)cc4O)n3c2)n(-c2cccc(C)c2)n1` [Example 151] stands 1.4 nM.

The assay is the same for the next values; noted with them: PBMC; LPS-stimulated human peripheral blood mononuclear cells, 18 hours incubation, TNFα in supernatant by ELISA; read-out: TNF IC50.
Turning to `CSC(C)(C)c1cc(NC(=O)NCc2ccccc2Sc2ccc3nnc(-c4ccccc4O)n3c2)n(-c2ccc(F)c(F)c2)n1` [Example 95, N-{1-(3,4-Difluorophenyl)-3-[1-methyl-1-(methylthio)ethyl]-1H-pyrazol-5-yl}-N′-(2-{[3-(2-hydroxyphenyl)[1,2,4]triazolo[4,3-a]pyridin-6-yl]thio}benzyl)urea], the IC50 is 0.6 nM.

Consider `COc1ccc(-n2nc(C(C)(C)C)cc2NC(=O)NCc2ccccc2Sc2ccc3nnc(-c4ccccc4O)n3c2)cc1` [Example 97, N-[3-tert-Butyl-1-(4-methoxyphenyl)-1H-pyrazol-5-yl]-N′-(2-{[3-(2-hydroxyphenyl)[1,2,4]triazolo[4,3-a]pyridin-6-yl]thio}benzyl)urea], for which the half-inhibitory concentration (IC50) was 0.6 nM. Same read-out and setting: under `COc1cccc(-n2nc(C(C)(C)C)cc2NC(=O)NCc2ccccc2Sc2ccc3nnc(-c4ccccc4O)n3c2)c1` [Example 98, N-[3-tert-Butyl-1-(3-methoxyphenyl)-1H-pyrazol-5-yl]-N′-(2-{[3-(2-hydroxyphenyl)[1,2,4]triazolo[4,3-a]pyridin-6-yl]thio}benzyl)urea] stands 0.4 nM; under `CC(C)(C)c1cc(NC(=O)NCc2ccccc2Sc2ccc3nnc(-c4ccccc4O)n3c2)n(-c2cccc(OCCO)c2)n1` [Example 80, N-{3-tert-Butyl-1-[3-(2-hydroxyethoxy)phenyl]-1H-pyrazol-5-yl}-N′-(2-{[3-(2-hydroxyphenyl)[1,2,4]triazolo[4,3-a]pyridin-6-yl]thio}benzyl)urea], 1.1 nM. For `CSc1ccc(-c2nnc3ccc(Sc4ccccc4CNC(=O)Nc4cc(C(C)(C)C)nn4-c4cccc(O)c4)cn23)cc1` [Example 114, N-[3-tert-Butyl-1-(3-hydroxyphenyl)-1H-pyrazol-5-yl]-N′-[2-({3-[4-(methylthio)phenyl][1,2,4]triazolo[4,3-a]pyridin-6-yl}thio)benzyl]urea], the half-maximal inhibitory concentration (IC50) was found to be 3.6 nM. Same read-out and setting: the figure for `CCC(C)(C)c1cc(NC(=O)NCc2ccccc2Sc2ccc3nnc(-c4ccccc4O)n3c2)n(-c2cccc(OCCO)c2)n1` [Example 100] is 1.1 nM; for `CSc1ccccc1-c1nnc2ccc(Sc3ccccc3CNC(=O)Nc3cc(C(C)(C)C)nn3-c3cccc(O)c3)cn12` [Example 93, N-[3-tert-Butyl-1-(3-hydroxyphenyl)-1H-pyrazol-5-yl]-N′-[2-({3-[2-(methylthio)phenyl][1,2,4]triazolo[4,3-a]pyridin-6-yl}thio)benzyl]urea] it is 1.1 nM.

With `CC(C)(C)c1cc(NC(=O)NCc2ccccc2Sc2ccc3nnc(-c4ccccc4O)n3c2)n(-c2ccc(F)cc2)n1` [Example 46, N-[3-tert-Butyl-1-(4-fluorophenyl)-1H-pyrazol-5-yl]-N′-(2-{[3-(2-hydroxyphenyl)[1,2,4]triazolo[4,3-a]pyridin-6-yl]thio}benzyl)urea], the 50% inhibitory concentration (IC50) is 0.8 nM. Regarding `CSC(C)(C)c1cc(NC(=O)NCc2ccccc2Sc2ccc3nnc(-c4cc(Cl)ccc4O)n3c2)n(-c2cccc(C)c2)n1` [Example 86, N-(2-{[3-(5-Chloro-2-hydroxyphenyl)[1,2,4]triazolo[4,3-a]pyridin-6-yl]thio}benzyl)-N′-[3-[1-methyl-1-(methylthio)ethyl]-1-(3-methylphenyl)-1H-pyrazol-5-yl]urea], the IC50 was 0.8 nM. For the compound `COc1ccccc1-c1nnc2ccc(Sc3ccccc3CNC(=O)Nc3cc(C(C)(C)C)nn3-c3cccc(OCCO)c3)cn12` [Example 45, N-{3-tert-Butyl-1-[3-(2-hydroxyethoxy)phenyl]-1H-pyrazol-5-yl}-N′-(2-{[3-(2-methoxyphenyl)[1,2,4]triazolo[4,3-a]pyridin-6-yl]thio}benzyl)urea], the IC50 came to 1.4 nM.
